Assays:
[1] = tested on: lesional skin of patients with moderate atopic dermatitis; experiment: Gene expression by microarray (Affymetrix U133A Plus 2) in lesional skin biopsies, Phase II atopic dermatitis study; assay type: in vivo, human; settings: microarray fold change
Excerpt: (§1) 31 patients with moderate atopic dermatitis (Investigator Global Assessment [IGA] of 3) were included in this double-blind, randomized, intraindividual vehicle-controlled, Phase 2 study to evaluate the efficacy and safety of topically applied niclosamide. Patients had at least 2 areas of at least 3×3-cm of atopic dermatitis with a Total Sign Score (TSS) of […] discontinued the study before Day 22.
(§2) Patients received topical applications of the niclosamide 2% composition and vehicle once daily for 3 weeks, followed by a 1-week follow up period. Topical niclosamide 2% and vehicle was applied on two separate target lesions of atopic dermatitis (lesions of at least 3×3-cm that are at least 2 cm apart, excluding the face, scalp, genitals, hands, and feet). The application areas (5×5-cm) were randomized (1:1) to once daily application of niclosamide 2% or vehicle at 5 mg/cm^2/day without occlusion 6 days per week. Patients came to the study site for all study product application for a total of 3 weeks.
(§3) Three skin biopsies were collected in all patients (one from lesional skin at baseline, pre-dosing at Day 1, and two from lesional skin at Day 22 (one where topical niclosamide 2% had been applied and one where the vehicle had been applied). The lesional skin biopsies were analysed for skin thickness and inflammation biomarkers.
(§4) Skin barrier and inflammation biomarker levels were determined from lesional skin biopsies from application areas.
(§5) The skin biopsy samples were analysed by immunohistochemistry (IHC), and by gene expression studies by RT-PCR using TaqMan Low Density Array (TLDA), and by microarray using Affymetrix U133A Plus 2. The immunohistochemistry (IHC) was used to analyse cell biomarkers. The methodologies as disclosed by Guttman-Yassky et al, “Major differences in inflammatory dendritic cells and their products distinguish atopic dermatitis from psoriasis”, The Journal of Allergy and Clinical Immunology, vol. 119, issue 5, pages 1210-1217, 2007, were followed except for that U133A Plus 2-set Gene Chip probe arrays was used instead of U95A-set Gene Chip probe arrays.
Experimental design: The hybridization strategy was in concordance with experimental design principles, by for example keeping all samples from the same patient in the same date, and always include samples from every treatment arm/group.
Quality Control and Pre-processing: Quality control of microarray chips were carried out using standard QC metrics and R package microarray Quality Control. Expression measures were obtained using GCRMA algorithm (Wu & Irizarry, 2004). Several visual and modelling techniques were used to elucidate if batch effect existed. Principal Component analysis plots were used to detect if any evident batch effect existed. If such batch effects were found, they were adjusted using Combat, an empirical Bayes method for adjusting data for batch effects that is robust to outliers in small sample sizes (Johnson, Li, & Rabinovic, 2007). The implementation of Combat by package sva was used.
Probe-sets with at least 5% samples with expression larger than 3 (in log 2-scale) were kept for further analysis. Expression values were modelled using mixed-effect models with fixed factors Visit and Treatment Area and a random effect for each patient. Fold changes for the comparisons of interest were estimated and hypothesis testing was conducted on such comparisons using contrasts under the general framework for linear models in limma package. The inter-replicate correlation was computed by Duplicate Correlation function and the linear model was estimated by ImFit. P-values from the moderated (paired) t-test were adjusted for multiple hypotheses using the Benjamini-Hochberg procedure, which controls for FDR.

[2] = tested on: lesional skin of patients with moderate atopic dermatitis; experiment: Gene expression by qRT-PCR (TLDA) in lesional skin biopsies, Phase II atopic dermatitis study; assay type: in vivo, human; settings: qRT-PCR fold change, lesional skin biopsy, Day 22, niclosamide 2% once daily
Excerpt: as §1, §2, §3, §4, §5
Expression values (threshold cycle [Ct]) were normalized to Rplp0 by negatively transforming the Ct values to −dCt (IL17A was normalized to hARP, as analysed by qPCR). The undetected −dCt values were estimated for each gene as the 20% of the minimum across all samples. qRT-PCR expression data were modelled using a mixed effect model with Visit and Treatment Area as a fixed effect and a random intercept for each patient. This formulation intrinsically models the within patient correlation structure as in the case of a paired t-test. This approach introduces less bias than restricting the analysis for those patients who completed the study. Contrasts were used to estimate the fold changes with treatment within each treatment group and conduct hypothesis testing.

[3] = tested on: lamina propria T cells (expressing CD3); settings: WO 2017/040864; cited from earlier work
[4] = tested on: dendritic cell; settings: in-vitro, Wu et al.; cited from earlier work
[5] = tested on: lesional skin of patients with moderate atopic dermatitis; experiment: Immunohistochemistry (IHC) of cell markers in lesional skin biopsies, Phase II atopic dermatitis study; assay type: in vivo, human; settings: lesional skin biopsy, Day 22, 2% niclosamide
Excerpt: as §1, §2, §3, §5

[6] = tested on: lesional skin of patients with moderate atopic dermatitis; experiment: Skin thickness in lesional skin biopsies at Day 22; assay type: in vivo, human; settings: lesional skin biopsy, Day 22, 2% niclosamide
Protocol: as §2, with “weeks. Three skin biopsies were collected in all patients (one from lesional skin at baseline, pre-dosing at Day 1, and two from lesional skin at Day 22 (one where topical niclosamide 2% had been applied and one where the vehicle had been applied). The lesional skin biopsies were analysed for skin thickness and inflammation biomarkers.” for “weeks.”

[7] = tested on: lesional AD skin; settings: Brunner et al; cited from earlier work
[8] = lesional skin biopsy, Day 22, niclosamide 2% once daily
[9] = niclosamide relative to vehicle, Day 22, 2% niclosamide, p<0.05

With `O=C(Nc1ccc([N+](=O)[O-])cc1Cl)c1cc(Cl)ccc1O` [Niclosamide, niclosamide] the “ACOX2 Niclosamide vs Predose” value [1, 8] was 1.40, the “ACOX2 Vehicle vs. Niclosamide” value [1, 8] was −1.40 and the “CCL13 Niclosamide vs Predose” value [1, 8] was −1.40. The “CCL18 Niclosamide vs Predose” value [1, 8] was −1.70, the “CCL20 Vehicle vs. Niclosamide” value [1, 8] was 2.00 and the “CCR1 Niclosamide vs Predose” value [1, 8] was −1.90. For the same molecule, the “CCR5 Niclosamide vs Predose” value [1, 8] was −1.40, the “CD86 Niclosamide vs Predose” value [1, 8] was −1.60 and the “CXCL1 Vehicle vs. Niclosamide” value [1, 8] was 2.10. For the same molecule, the “FA2H Niclosamide vs Predose” value [1, 8] was 1.50, the “IFNGR2 Vehicle vs. Niclosamide” value [1, 8] was 1.10 and the “IL4R Niclosamide vs Predose” value [1, 8] was −1.80. For the same molecule, the “KRT79 Vehicle vs. Niclosamide” value [1, 8] was −2.00, the “S100A12 Vehicle vs. Niclosamide” value [1, 8] was 2.30 and the “SPTLC3 Vehicle vs. Niclosamide” value [1, 8] was −1.30. For the same molecule, the “CXCL1 downregulated compared to vehicle” value [1, 9] was −2.10, the “S100A12 downregulated compared to vehicle” value [1, 9] was −2.30 and the “CXCL1 Niclosamide vs. Predose” value [2] was −2.80. For the same molecule, the “CXCL10 Niclosamide vs. Vehicle” value [2] was −1.10, the “FLG Niclosamide vs. Predose” value [2] was 1.50 and the “FLG Niclosamide vs. Vehicle” value [2] was 1.30. For the same molecule, the “IL2 Niclosamide vs. Predose” value [2] was −1.20, the “IL17A Niclosamide vs. Vehicle” value [2] was −1.40 and the “KRT16 Niclosamide vs. Vehicle” value [2] was −1.60. The “MMP12 Niclosamide vs. Vehicle” value [2] was −1.90, the “S100A7 Niclosamide vs. Vehicle” value [2] was −2.20 and the “FLG Niclosamide vs. Predose” value ([2]; listed as niclosamide) was “increased significantly”. For the same molecule, the “LOR Niclosamide vs. Predose” value ([2]; listed as niclosamide) was “increased significantly”, the “effect on lamina propria T cells (expressing CD3) isolated from IBD patients” value [3] was “kills” and the “lipopolysaccharide (LPS)-induced dendritic cell maturation and cytokine costimulatory molecule and MHC molecule expression” value [4] was “inhibitory action”. The “Langerhans cells: langerin/CD207, compared to baseline” value [5] was “Significant reductions”, the “dendritic cells: CD11c, compared to baseline” value [5] was “Significant reductions” and the “dendritic cells: FceR1 in epidermis, compared to baseline” value [5] was “Significant reductions”. For the same molecule, the “total amount of T cells (CD3) in dermis and epidermis, compared to baseline” value [5] was “No significant change” and the “skin thickness compared to baseline and compared to vehicle” value [6] was “No differences”.

For “dupilumab: inhibits interleukin-4 and interleukin-13 signalling by binding to interleukin-4 receptor a; FDA approved for atopic dermatitis”, the “expression of Th2-associated molecules, such as CCL17, CCL18, and CCL26” value [7] is listed as “reduction”.
